Test results taken from patent publication US5773239A, “Mannosidase inhibitors, process for their preparation and their use as therapeutic agents” (Mount Sinai Hospital Corporation., priority 1995, dated 1998).

What was measured:
[1] = biological target: T1, rat liver Golgi α-mannosidase II (Rattus norvegicus, UniProt P28494); experiment: Rat liver Golgi α-mannosidase II assay; format: biochemical; conditions: para-nitrophenyl α-mannose, pH 5.6; read-out: IC50 ManII
T1 construct: The assay for rat liver Golgi α-mannosidase II; from tissue; host or cells: rat liver (Golgi)
T1 sequence (P28494 1-1148): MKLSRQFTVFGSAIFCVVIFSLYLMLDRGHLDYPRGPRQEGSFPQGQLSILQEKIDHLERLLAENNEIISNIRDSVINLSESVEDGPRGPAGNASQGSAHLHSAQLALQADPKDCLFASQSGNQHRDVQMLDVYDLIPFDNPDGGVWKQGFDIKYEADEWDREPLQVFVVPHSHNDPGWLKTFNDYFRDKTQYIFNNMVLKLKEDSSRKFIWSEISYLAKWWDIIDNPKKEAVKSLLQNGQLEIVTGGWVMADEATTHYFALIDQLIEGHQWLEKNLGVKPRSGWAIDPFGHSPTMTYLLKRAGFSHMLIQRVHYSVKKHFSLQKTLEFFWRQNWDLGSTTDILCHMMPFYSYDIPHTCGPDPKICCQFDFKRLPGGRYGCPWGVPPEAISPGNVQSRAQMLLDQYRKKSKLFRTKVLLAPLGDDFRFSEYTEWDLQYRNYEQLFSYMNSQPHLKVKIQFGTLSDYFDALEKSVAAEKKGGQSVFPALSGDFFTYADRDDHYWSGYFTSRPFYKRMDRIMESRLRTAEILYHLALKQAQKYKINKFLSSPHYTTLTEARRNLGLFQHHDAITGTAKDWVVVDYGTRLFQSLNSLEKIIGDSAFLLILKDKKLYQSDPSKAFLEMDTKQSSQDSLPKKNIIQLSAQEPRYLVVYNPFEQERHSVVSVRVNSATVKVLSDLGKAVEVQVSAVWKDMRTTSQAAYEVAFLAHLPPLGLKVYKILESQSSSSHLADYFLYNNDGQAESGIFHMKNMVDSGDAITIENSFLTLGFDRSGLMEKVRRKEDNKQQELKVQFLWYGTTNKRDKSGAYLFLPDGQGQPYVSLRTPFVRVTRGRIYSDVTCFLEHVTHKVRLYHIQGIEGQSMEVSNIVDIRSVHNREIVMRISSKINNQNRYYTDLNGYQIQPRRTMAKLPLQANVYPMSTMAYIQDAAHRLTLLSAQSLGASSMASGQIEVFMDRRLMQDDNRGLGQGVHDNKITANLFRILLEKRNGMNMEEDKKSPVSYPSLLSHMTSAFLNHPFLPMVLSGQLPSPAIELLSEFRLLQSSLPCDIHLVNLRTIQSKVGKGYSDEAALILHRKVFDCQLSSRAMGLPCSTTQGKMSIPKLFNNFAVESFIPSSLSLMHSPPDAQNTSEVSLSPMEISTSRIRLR
Procedure: The assay for rat liver Golgi α-mannosidase II contained 5 mM para-nitrophenylα-mannose, 40 mM sodium acetate pH 5.6, plus serially diluted test compouunds and mannosidase enzyme in a total volume of 50 ul, in 96 well plates. Plates were incubated 45 min at 37° C., then the reaction was stopped with 50 μl of 0.5M sodium carbonate. […] The lysosomal mannosidase was done in the same procedure but with 40 mM sodium acetate buffer pH 5.0. The numbers in the table are IC50 values in μM for inhibition of mannosidase activity.

[2] = test system: B16F10 melanoma cells; conditions: 1000 ng/ml; cited from earlier work

Question: With `O[C@H]1[C@H]2[C@H](O)CCCN2C[C@H]1O` [SW, Swainsonine, reference compound] as the molecule, how does the IC50 [1] read?
Answer: 0.1 µM

Question: And the “inhibition of organ colonization by B16F10 melanoma cells” value [2]?
Answer: > 90%
